What was measured:
[1] = Apparent permeability by cell based assay; assay type: ADME; settings: not told
[2] = Clearance in Mongrel dog at 1 mg/kg, iv; assay type: ADME, organism-based, Canis lupus familiaris; set-up: dose 1 mg/kg, route intravenous; settings: in vivo
[3] = target: T1, PXR (Nuclear receptor subfamily 1 group I member 2) (Homo sapiens, UniProt O75469); test: Reduction of PXR activation at 10 uM relative to rifampicin; set-up: scale not given: the % may be the effect or the level left; settings: read-out: Activity
T1 sequence (O75469 whole entry): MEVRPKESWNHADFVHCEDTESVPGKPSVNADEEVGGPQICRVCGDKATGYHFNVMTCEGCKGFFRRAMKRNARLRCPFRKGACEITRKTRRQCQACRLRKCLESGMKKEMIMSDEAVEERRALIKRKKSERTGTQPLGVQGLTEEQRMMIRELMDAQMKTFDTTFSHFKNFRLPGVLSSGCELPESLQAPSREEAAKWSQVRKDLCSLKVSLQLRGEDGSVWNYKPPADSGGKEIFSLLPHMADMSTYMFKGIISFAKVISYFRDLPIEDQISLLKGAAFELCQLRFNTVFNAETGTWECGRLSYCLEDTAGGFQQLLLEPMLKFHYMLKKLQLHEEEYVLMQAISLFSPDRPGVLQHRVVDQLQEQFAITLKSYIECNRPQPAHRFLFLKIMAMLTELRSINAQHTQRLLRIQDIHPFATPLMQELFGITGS

B1 bradykinin receptor = target: T2, B1 bradykinin receptor (Homo sapiens, UniProt P46663); test: Binding affinity to human bradykinin B1 receptor expressed in rat CNS
T2 sequence (P46663 whole entry): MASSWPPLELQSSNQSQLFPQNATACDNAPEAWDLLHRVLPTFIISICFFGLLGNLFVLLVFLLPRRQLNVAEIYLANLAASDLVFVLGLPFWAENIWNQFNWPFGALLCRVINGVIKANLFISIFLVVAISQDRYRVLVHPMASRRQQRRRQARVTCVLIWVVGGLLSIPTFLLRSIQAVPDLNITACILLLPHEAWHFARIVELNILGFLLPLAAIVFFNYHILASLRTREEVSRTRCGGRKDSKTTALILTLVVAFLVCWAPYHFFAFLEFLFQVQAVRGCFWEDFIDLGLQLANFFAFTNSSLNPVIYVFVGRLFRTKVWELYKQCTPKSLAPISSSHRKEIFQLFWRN

[4] = Half life in Mongrel dog at 1 mg/kg, iv; assay type: ADME, organism-based, Canis lupus familiaris; set-up: dose 1 mg/kg, route intravenous; settings: in vivo
[5] = Ratio of permeability from basolateral to apical over apical to basolateral side in P-gp expressing cells
[6] = Half life in Sprague-Dawley rat at 10 mg/kg, po or 2 mg/kg, iv; assay type: ADME, organism-based; settings: in vivo
[7] = Clearance in Sprague-Dawley rat at 10 mg/kg, po or 2 mg/kg, iv; assay type: ADME, organism-based; settings: in vivo
[8] = Oral bioavailability in Mongrel dog at 3 mg/kg; assay type: ADME, organism-based, Canis lupus familiaris; settings: in vivo
[9] = Half life in rhesus monkey at 3 mg/kg, po or 1 mg/kg, iv; assay type: ADME, organism-based, Macaca mulatta; settings: in vivo
[10] = Ratio of drug level in brain to plasma in african green monkey; assay type: ADME, organism-based; settings: chlorocebus aethiops
[11] = Oral bioavailability in Sprague-Dawley rat at 10 mg/kg; assay type: ADME, organism-based; settings: in vivo
[12] = Clearance in rhesus monkey at 3 mg/kg, po or 1 mg/kg, iv; assay type: ADME, organism-based, Macaca mulatta; settings: in vivo
[13] = target: T3, B1 bradykinin receptor (Homo sapiens) (UniProt P46663); test: Ex vivo receptor occupancy at bradykinin B1 receptor
T3 sequence (whole entry): T2 sequence (P46663 whole entry)

[14] = Oral bioavailability in rhesus monkey at 3 mg/kg; assay type: ADME, organism-based, Macaca mulatta; settings: in vivo

SMILES	Papp [1]	clearance [2]	activity at 10 µM [3]	Ki (B1 bradykinin receptor)	half-life [4]	Ratio [5]	half-life [6]	clearance [7]	bioavailability [8]	half-life [9]	Kp [10]	bioavailability [11]	clearance [12]	Occ90 [13]	bioavailability [14]
C[C@@H](NC(=O)C1(NC(=O)C(F)(F)F)CC1)c1ncc(-c2cc(Cl)cc(Cl)c2OCC(F)F)cc1F	23 ×10⁻⁶ cm/s	2.3 mL/min/kg	99%	1.5 nM	21 h										
C[C@@H](NC(=O)C1(NC(=O)c2cc(C3CC3)on2)CC1)c1ncc(-c2cc(Cl)cc(Cl)c2OCC(F)F)cc1F	18 ×10⁻⁶ cm/s	13 mL/min/kg	58%	2.6 nM	6.9 h	3.8									
C[C@@H](NC(=O)C1(NC(=O)C(F)(F)F)CC1)c1ccc(-c2cc(Cl)cc(Cl)c2OCC(F)F)cc1F	26 ×10⁻⁶ cm/s		95%	0.2 nM			7.6 h	5.8 mL/min/kg							
C[C@@H](NC(=O)C1(NC(=O)c2cc(Cl)no2)CC1)c1ncc(-c2cc(Cl)cc(Cl)c2OCC(F)F)cc1F	26 ×10⁻⁶ cm/s	2.6 mL/min/kg	68%	0.2 nM	34 h	1.6									
CCc1cc(C(=O)NC2(C(=O)N[C@H](C)c3ncc(-c4cc(Cl)cc(Cl)c4OCC(F)F)cc3F)CC2)no1	25 ×10⁻⁶ cm/s	14 mL/min/kg	37%	1.9 nM	4.5 h	2									
Cc1cc(C(=O)NC2(C(=O)N[C@H](C)c3ncc(-c4cc(Cl)cc(Cl)c4OCC(F)F)cc3F)CC2)no1	23 ×10⁻⁶ cm/s	4.5 mL/min/kg	28%	1.4 nM	9.4 h	1.5	3 h	5.1 mL/min/kg	21%	1.6 h	0.9	30%	9.1 mL/min/kg	940 nM	25%
CCOc1c(Cl)cccc1-c1ccc([C@@H](C)NC(=O)C2(NC(=O)C(F)(F)F)CC2)c(F)c1	29 ×10⁻⁶ cm/s			0.9 nM		1.9	1.9 h	16 mL/min/kg				48%			
C[C@@H](NC(=O)C1(NC(=O)C(F)(F)F)CC1)c1ccc(-c2cc(Cl)cc(Cl)c2OC(CF)CF)cc1F	28 ×10⁻⁶ cm/s			0.9 nM			5 h	1.6 mL/min/kg				56%			
CC(C)Oc1c(Cl)cc(Cl)cc1-c1ccc([C@@H](C)NC(=O)C2(NC(=O)C(F)(F)F)CC2)c(F)c1				2.3 nM											
C[C@@H](NC(=O)C1(NC(=O)C(F)(F)F)CC1)c1ccc(-c2cc(Cl)cc(Cl)c2OCC(F)(F)F)cc1F	6.3 ×10⁻⁶ cm/s		45%	1.8 nM			27 h	1.1 mL/min/kg				35%			
CCOc1c(Cl)cc(Cl)cc1-c1cnc([C@@H](C)NC(=O)C2(NC(=O)C(F)(F)F)CC2)c(F)c1			89%	1.5 nM			5 h	11.3 mL/min/kg			2.2	8%		1450 nM	
CCOc1c(Cl)cc(Cl)cc1-c1ccc([C@@H](C)NC(=O)C2(NC(=O)C(F)(F)F)CC2)c(F)c1	18 ×10⁻⁶ cm/s		62%	1.3 nM			7.5 h	11.5 mL/min/kg				38%			
CCOc1cc(C(=O)NC2(C(=O)N[C@H](C)c3ncc(-c4cc(Cl)cc(Cl)c4OCC(F)F)cc3F)CC2)on1	25 ×10⁻⁶ cm/s	3 mL/min/kg	37%	1.1 nM	13.5 h	2.1									
COC(=O)c1c(Cl)cc(Cl)cc1-c1ccc([C@@H](C)NC(=O)C2(NC(=O)C(F)(F)F)CC2)c(F)c1		20 mL/min/kg	77%	0.4 nM	1.6 h								11.2 mL/min/kg		
C[C@@H](NC(=O)C1(NC(=O)c2ccon2)CC1)c1ncc(-c2cc(Cl)cc(Cl)c2OCC(F)F)cc1F	35 ×10⁻⁶ cm/s	2 mL/min/kg	23%	1.2 nM	18 h	1.8									
COc1cc(C(=O)NC2(C(=O)N[C@H](C)c3ncc(-c4cc(Cl)cc(Cl)c4OCC(F)F)cc3F)CC2)on1	28 ×10⁻⁶ cm/s	1.2 mL/min/kg	8%	0.5 nM	21 h	2	4.5 h	2.4 mL/min/kg	94%	6.2 h	0.7	44%	1.6 mL/min/kg	540 nM	93%
C[C@@H](NC(=O)C1(NC(=O)c2ccno2)CC1)c1ncc(-c2cc(Cl)cc(Cl)c2OCC(F)F)cc1F	29 ×10⁻⁶ cm/s	5.9 mL/min/kg	21%	0.4 nM	4 h	3.9									
CCOc1c(Cl)cc(Cl)cc1-c1cnc([C@@H](C)NC(=O)C2(NC(=O)c3ccno3)CC2)c(F)c1		7 mL/min/kg	15%	0.6 nM	4.5 h		1.9 h	10 mL/min/kg	55%	1.2 h	1.4	7%	15 mL/min/kg	380 nM	3%
COC(=O)c1c(Cl)cc(Cl)cc1-c1ccc([C@@H](C)NC(=O)C2(NC(=O)c3cc(OC)no3)CC2)c(F)c1			40%	0.4 nM		5.1									

From ChEMBL document CHEMBL1141596, “A new class of bradykinin B1 receptor antagonists with high oral bioavailability and minimal PXR activity” (Bioorg Med Chem Lett, 2008)
